Converted amounts (≈) assume the structure as drawn. Where two headings read alike, the source gives them in different places.
How the values were obtained:
E. coli (ATCC-25922) = experiment: Minimal inhibitory/bactericidal concentrations (MIC/MBC); type: cell-based, Escherichia coli
Text: (§1) The antimicrobial activity of newly synthesized benzyl thiazolium ionic liquids (BTILs) was investigated in vitro against the most common foodborne bacterial strains (Staphylococcus aureus (S. aureus, ATCC-25923) and Escherichia coli (E. coli, ATCC-25922)) in comparison with clinical drugs (Gentamycin (Gm) and Tetracyclin (TC)). These tests have been conducted in accordance with the standard antimicrobial assessment protocols we've described and used in our previous studies.[29] The diameters of the zone of inhibition (ZOI, mm), values of minimum inhibitory concentration (MIC), and minimal bactericidal concentration (MBC) were used as markers for the antimicrobial efficacy of the tested compounds.
(§2) As evident in Table 2, the results of MIC and MBC are in general accordance with the Well diffusion assay. […] In the literature, quantitative information on the antimicrobial activity of short-chained and benzyl-functionalized ionic liquids is scarce. In this context, few studies have reported the antibacterial impact of 1-alkyl-3-methylimidazolium ionic liquids, bound to different anions, upon various pathogenic bacteria.

[1] = test system: Staphylococcus aureus (S. aureus, ATCC-25923); experiment: Well diffusion assay (zone of inhibition); type: cell-based
Text: as §1, with “These tests have been conducted in accordance with the standard antimicrobial assessment protocols we've described and used in our previous studies.[29]” left out
The antibacterial activities of novel TILs against S. aureus and E. coli were screened in vitro, as compared to clinical antibiotics (Gentamycin (Gm) and Tetracyclin (TC)). […] Gram-negative bacteria' outer membranes, which are composed of impermeable lipopolysaccharides (LPS), phospholipids, and lipoproteins, may act as a barrier to the entry of antimicrobial molecules, whereas Gram-positive bacteria's outer membranes have no LPS layer and are composed only of a thick peptidoglycan layer which can easily absorb and transfer such antimicrobials to the inner cell membrane.[43]

[2] = test system: ovarian carcinoma cell lines (SKOV-3); experiment: MTT cytotoxicity assay; type: cell-based, human; settings: for IC50: SKOV-3, MTT, 24 h of treatment; for Selectivity index (SI): cancer cells (SKOV-3) over normal ones (HSF)
Method: (§3) The antiproliferative activity of novel BTILs was tested in vitro against two cell lines: ovarian cancer (SKOV-3) and normal human skin fibroblast cells (HSF) using the standard MTT cytotoxicity assay described in our previous work.[30] The cell viability ratios, half-maximal inhibitory concentration (IC50), and selectivity index (SI) were used as performance indices for the cytotoxicity of tested compounds. The clinical anticancer drug (cisplatin, CDDP) was used as a positive control.
The use of ionic liquids (ILs) in pharmaceutical and medicinal chemistry has recently piqued the interest of researchers across the globe.[12] In this scenario, several studies have documented the anticancer potential of ILs.[20,48] In order to find potential safe anticancer candidates, the cytotoxicity of imidazolium, ammonium, pyridinium, and phosphonium ILs was tested against over 60 human cancer cell lines.[12,49] […] Besides, the cytotoxicity of ILs is strongly correlated to the counter anion. For instance, the cytotoxicity of 1-alkyl-3-methylimidazolium cation [RMIM]^+ follows the following trend; [RMIM][Tf2N] ≫ [RMIM][BF4] > [RMIM][Cl].[50] To our knowledge, no previous studies have been reported so far for using thiazolium ILs for anticancer purposes. These facts have inspired us to design and study the antiproliferative activity of new thiazolium ILs tethering different anions (BF4 (3a–c) and Tf2N (4a–c)) against ovarian carcinoma cell lines (SKOV-3) and normal human skin fibroblast cells (HSF). The 3-(4,5-dimethylthiazol-2-yl)-2,5-diphenyltetrazolium bromide (MTT) assay was used to carry out this study, with cisplatin (CDDP) serving as a positive control. Initially, the impacts of serial concentrations (2.5–100 μM) of the thiazolium ILs on the viability of the SKOV-3 cell lines were assessed as compared to CDDP. […] In general, TILs bound to Tf2N anion (4a–c) inhibited the proliferation of SKOV-3 cells more effectively than the corresponding tetrafluoroborate analogues (3a–c). For instance, [^iPBzTh][Tf2N] (4b) is the most cytotoxic one and can reduce the SKOV-3 cellular viability to a minimum value (10.5 ± 1.7%, Fig. 5A) at its treatment dosage of 100 μM. Conversely, [MBzTh][BF4]
At definite time intervals, the SKOV-3 cell viability has been measured.

[3] = Viscosity by capillary viscometer; type: physicochemical; settings: at 50 °C and concentrations 0.5 mg mL^−1, capillary viscometer
Text: Also, the viscosity of new benzyl thiazolium ionic liquids depends on the intrinsic structural features of the cation and anion. […] This behavior can be explained based on the fact that the extremely hydrophobic Tf2N^− anion, enriched with fluorine electrons, exerts higher ion–ion interactions with hydrophobic tert-butylbenzyl-methylthiazolium cation, resulting in an increase in viscosity.[35]

[4] = Thermal stability by TG/DTG; type: physicochemical; settings: taken from DTG curves
Method: The thermogravimetric (TG) curves of the room temperature thiazolium ionic liquids (RTTILs) (3a, 4a–c) (Fig. 1A) were employed for the investigation of their thermal stabilities. It is evident that they are thermally stable up to 270 °C and then undergo a sharp degradation phase in the temperature range of 270–350 °C. […] The first main decomposition phase (∼81% weight loss) starts at 323 °C, followed by a modest decomposition stage between 496 and 618 °C. […] The first thermal degradation step begins at 298 °C (∼52% weight loss) and is followed by two smaller degradation steps at 353 and 418 °C, respectively.

MTT cytotoxicity assay = type: cell-based, human; settings: human, normal human skin fibroblast (HSF) cells; 200 μM, 24 h
Method: as §3
(§4) To explore the selectivity of the newly synthesized TILs for attacking cancer cells over normal ones, the effects of serial concentrations (0–200 μM) of these TILs on the proliferation of normal human skin fibroblast (HSF) cells were also studied for a period of 24 h. […] For example, treatment of both cell lines with 100 μM of [^iPBzTh][Tf2N] […] [MBzTh][BF4]

[5] = test system: normal human skin fibroblast cells (HSF); experiment: MTT cytotoxicity assay; type: cell-based; settings: HSF, MTT, 24 h of treatment
Method: as §3, §4

S. aureus (ATCC-25923) = experiment: Minimal inhibitory/bactericidal concentrations (MIC/MBC); type: cell-based, Staphylococcus aureus; settings: for MBC ± SD / MIC ± SD: S. aureus
Text: as §1, §2

E.coli = test system: E.coli; parameters: method as in doi:10.1039/b921805j, doi:10.1016/j.molliq.2016.05.093; settings: cited from earlier work
S.aureus = test system: S.aureus; parameters: method as in doi:10.1039/b921805j, doi:10.1016/j.molliq.2016.05.093; settings: cited from earlier work

Q: With `Cc1ccc(C[n+]2cscc2C)cc1.F[B-](F)(F)F` [3a, 3-(4-Methylbenzyl)-4-methylthiazol-3-ium tetrafluoroborate] as the molecule, how does the “MBC ± SD” value (E. coli (ATCC-25922)) read?
A: 5.75 ± 0.45 mM

Q: What about the “MIC ± SD” value (E. coli (ATCC-25922)) of the same molecule?
A: 5.75 ± 0.41 mM

Q: What about the “Zone of inhibition (ZOI)” value [1] of the same molecule?
A: 39.21 mm

Q: And the “Reduction in SKOV-3 viability” value ([2]; 100 μM, 24 h)?
A: 54.6%

Q: And the IC50 [2]?
A: 78 ± 1.35 µM

Q: What about the “Selectivity index (SI)” value [2] of the same molecule?
A: 2.28

Q: What about the “η (viscosity)” value [3] of the same molecule?
A: 439.25 ± 5.3 cP

Q: What about the “T dec (decomposition temperature)” value [4] of the same molecule?
A: 340.3 °C

Q: And the viability at 24 h, 200 µM (MTT cytotoxicity assay)?
A: 45.5 ± 4.1%

Q: And the IC50 ([5]; Homo sapiens, Skin fibroblast, 24 h)?
A: 178 ± 8.79 µM

Q: What about the “MBC ± SD” value (S. aureus (ATCC-25923)) of the same molecule?
A: 3.25 ± 0.21 mM

Q: What about the “MIC ± SD” value (S. aureus (ATCC-25923)) of the same molecule?
A: 3.25 ± 0.19 mM

Q: With `[NH2][Pt]([NH2])([Cl])[Cl]` [CDDP, cisplatin, reference compound] as the molecule, how does the SKOV-3 cell viability ([2]; IC50 dose, after 72 h) read?
A: 10.2 ± 2.7%

Q: What about the IC50 [2] of the same molecule?
A: 79.5 ± 1.18 µM

Q: And the “Selectivity index (SI)” value [2]?
A: 0.73

Q: What about the IC50 [5] of the same molecule?
A: 58.3 ± 6.67 µM

Q: Which results are given for `Cc1csc[n+]1Cc1ccc(C(C)(C)C)cc1.[Cl-]` [2c, 3-(4-(tert-Butyl)benzyl)-4-methylthiazol-3-ium chloride]?
A: MBC ± SD (E. coli (ATCC-25922)): 6.25 ± 0.29 mM; MIC ± SD (E. coli (ATCC-25922)): 6.25 ± 0.27 mM; MBC ± SD (S. aureus (ATCC-25923)): 3.75 ± 0.14 mM; MIC ± SD (S. aureus (ATCC-25923)): 3.75 ± 0.19 mM

Q: Which “MIC ± SD” value (E. coli (ATCC-25922)) does the source give for Gentamycin [reference compound] here?
A: 6.85 ± 0.63 mM

Q: For `Cc1ccc(C[n+]2cscc2C)cc1.[Cl-]` [2a, 3-(4-Methylbenzyl)-4-methylthiazol-3-ium chloride], which “MBC ± SD” value (E. coli (ATCC-25922)) is on record?
A: 12.25 ± 0.36 mM

Q: What about the “MIC ± SD” value (E. coli (ATCC-25922)) of the same molecule?
A: 6.75 ± 0.35 mM

Q: And the “MBC ± SD” value (E. coli (ATCC-25922); listed as [MBzTh][Cl])?
A: 12.25 mM

Q: What about the “MIC ± SD” value (E. coli (ATCC-25922); listed as [MBzTh][Cl]) of the same molecule?
A: 6.75 mM

Q: And the “MBC ± SD” value (S. aureus (ATCC-25923))?
A: 4.25 ± 0.31 mM

Q: And the “MIC ± SD” value (S. aureus (ATCC-25923))?
A: 4.05 ± 0.29 mM

Q: And the “MBC ± SD” value (S. aureus (ATCC-25923); listed as [MBzTh][Cl])?
A: 4.25 mM

Q: And the “MIC ± SD” value (S. aureus (ATCC-25923); listed as [MBzTh][Cl])?
A: 4.05 mM

Q: Which MIC (S. aureus (ATCC-25923); Staphylococcus aureus, ATCC25923, S. aureus) does the source give for `CN(C)[C@@H]1C(O)=C(C(N)=O)C(=O)[C@@]2(O)C(O)=C3C(=O)c4c(O)cccc4[C@@](C)(O)[C@H]3C[C@@H]12` [Tetracycline, reference compound] here?
A: 7.2 ± 0.66 mM (≈ 3200 µg/mL)

Q: For `Cc1csc[n+]1Cc1ccc(C(C)(C)C)cc1.F[B-](F)(F)F` [3c, 3-(4-(tert-Butyl)benzyl)-4-methylthiazol-3-ium tetrafluoroborate], which “MBC ± SD” value (E. coli (ATCC-25922)) is on record?
A: 6.50 ± 0.39 mM

Q: And the “MIC ± SD” value (E. coli (ATCC-25922))?
A: 6.50 ± 0.39 mM

Q: And the “Zone of inhibition (ZOI)” value [1]?
A: 39.02 mm

Q: And the IC50 [2]?
A: 51.1 ± 2.33 µM

Q: And the “Selectivity index (SI)” value [2]?
A: 3.76

Q: What about the IC50 [5] of the same molecule?
A: 191 ± 9.85 µM

Q: And the “MBC ± SD” value (S. aureus (ATCC-25923))?
A: 3.12 ± 0.14 mM

Q: What about the “MIC ± SD” value (S. aureus (ATCC-25923)) of the same molecule?
A: 3.12 ± 0.19 mM

Q: Which MBC (E.coli) does the source give for `CCCCCCn1cc[n+](C)c1.O=S(=O)([N-]S(=O)(=O)C(F)(F)F)C(F)(F)F` [1-hexyl-3-methylimidazolium bis((trifluoromethyl)sulfonyl)amide] here?
A: 24.59 mM

Q: And the MIC (E.coli)?
A: 24.59 mM

Q: And the MBC (S.aureus)?
A: 9.13 mM

Q: And the MIC (S.aureus)?
A: 9.13 mM

Q: What does the source list for `Cc1csc[n+]1Cc1ccc(C(C)C)cc1.F[B-](F)(F)F` [3b, 3-(4-Isopropylbenzyl)-4-methylthiazol-3-ium tetrafluoroborate]?
A: MBC ± SD (E. coli (ATCC-25922)): 6.25 ± 0.23 mM; MIC ± SD (E. coli (ATCC-25922)): 5.25 ± 0.29 mM; Zone of inhibition (ZOI) [1]: 41.86 mm; IC50 [2]: 35.7 ± 1.03 µM; Selectivity index (SI) [2]: 4.26; IC50 [5]: 152 ± 9.15 µM; MBC ± SD (S. aureus (ATCC-25923)): 2.56 ± 0.15 mM; MIC ± SD (S. aureus (ATCC-25923)): 2.56 ± 0.13 mM

Q: With `Cc1csc[n+]1Cc1ccc(C(C)C)cc1.[Cl-]` [2b, 3-(4-Isopropylbenzyl)-4-methylthiazol-3-ium chloride] as the molecule, how does the “MBC ± SD” value (E. coli (ATCC-25922)) read?
A: 5.25 ± 0.29 mM

Q: And the “MIC ± SD” value (E. coli (ATCC-25922))?
A: 5.25 ± 0.31 mM

Q: What about the “Zone of inhibition (ZOI)” value [1] of the same molecule?
A: 32.13 mm

Q: What about the “MBC ± SD” value (S. aureus (ATCC-25923)) of the same molecule?
A: 2.35 ± 0.28 mM

Q: And the “MIC ± SD” value (S. aureus (ATCC-25923))?
A: 2.35 ± 0.27 mM

Source: publication PMC8978639, “Fine-tuning of the pharmacological potential of novel thiazolium ionic liquids by anion alteration” (RSC Advances, 2021)
